Laboratory results from paper PMC12730352 (Brain Sciences, 2025).

Experiments:
[1] = system: NaV 1.7, NaV 1.8, and GABA; test: Nociception-related biomarker panel by ELISA in 3D EngNT (all markers together); format: cell-based, rat; conditions: GGF 200 ng/mL pretreatment, 24 h
Protocol: Quantification was obtained through a standard curve ranging from 6 to 400 pg/mL. NaV 1.7 was quantified on 3[…] lysates using the SCN9A/Nav1.7 ELISA Kit (LifeSpan BioSciences, Lynnwood, WA, USA). OD was correlated with the standards' concentration (0.312 to 20 ng/mL) using a standard curve. On 3[…] lysates, the Mouse Sodium Channel Protein Type 10 Subunit Alpha (SCN10A) ELISA Kit (MyBiosource, San Diego, CA, USA) quantified NaV 1.8 [64]. Comparing colour intensity (OD) to standard concentration produced a standard curve.

NRG1 = conditions: 3D EngNT, GGF 200 ng/mL pretreatment, 24 h
Protocol: Starting on day 14 of maturation, GGF at 200 ng/mL was added to the EngNT 3D model to damage peripheral neurons and remove substantial myelin [51]. 3D EngNT was then treated for 24 h with the intestinal metabolite of each previously collected sample.
All ELISA analyses were performed according to the manufacturers’ instructions using specific commercial kits for each biomarker. Absorbance was measured at 450 nm using a microplate reader (Infinite 200 ProMPlex, Tecan, Männedorf, Switzerland). For each assay, a standard calibration curve (range depending on the specific kit) was used to determine analyte concentrations.
NRG1 levels in 3D EngNT supernatants were measured using the FineTest NRG1 Rat ELISA Kit (Wuhan, China) [62].

p75 = p75 (NGFR) ELISA in 3D EngNT lysates; format: cell-based, rat; conditions: GGF 200 ng/mL pretreatment, 24 h
Protocol: 3[…] lysates were subjected to the Rat NGFR ELISA kit (MyBiosource, San Diego, CA, USA) in accordance with the product specifications. Quantification was obtained through a standard curve ranging from 0.312 to 20 ng/mL.

MPZ = MPZ ELISA in 3D EngNT lysates; format: cell-based, rat; conditions: GGF 200 ng/mL pretreatment, 24 h
Protocol: (§1) The MPZ content in 3D EngNT cell lysates was determined using the Rat ELISA kit (MyBiosource, San Diego, CA, USA). A standard curve with a range of 0.06 to 18 ng/mL was used to express the concentration as a percentage of ng/mL.

[2] = system: 3D EngNT (RSC96/PC12 co-culture); test: MTT cell viability in 3D EngNT under demyelination (GGF 200 ng/mL); format: cell-based, rat; conditions: GGF 200 ng/mL pretreatment, 24 h with intestinal metabolites
Protocol: RSC96, a rat-derived Schwann cell line (purchased from ATCC), was cultured in Adv DMEM (Thermo Fisher Scientific, Rodano, MI, Italy) containing 1% penicillin-streptomycin, 2 mM L-glutamine, and 5% FBS [46]. The culture was maintained at 37 °C with 5% CO2 and 95% humidity in a 37 °C incubator. Experiments utilised RSC96 cells from passages 10 to 15, which were sub-cultured two or three times weekly.
The ATCC rat neural PC12 cell line was cultured in Advanced RPMI-1640 medium (Thermo Fisher Scientific, Rodano, MI, Italy). This medium contained 5% FBS, 5% horse serum (HS; Merck Life Science, Rome, Italy), and 2 mM glutamine. Cultures were maintained at 37 °C in a 5% CO2 environment with 95% humidity, ensuring they remained below confluency. Assays utilised cells between passages 3 and 13 [47]. PC12 cells are commonly used for in vitro neuroprotective chemical screening, being a suitable neuronal cell line. […]
A standard method described in the literature was employed to assess cell survival after each stimulation using the MTT-based In Vitro Toxicology Assay Kit (Merck Life Science, Rome, Italy). All solubilised materials, whether treated or untreated, were measured at 570 nm with a 690 nm correction using a spectrometer (Infinite 200 Pro MPlex, Tecan, Männedorf, Switzerland). […]

ERβ = ERβ ELISA in 3D EngNT lysates; format: cell-based, rat; conditions: GGF 200 ng/mL pretreatment, 24 h
Protocol: ERβ concentrations in 3[…] lysates were measured using the Rat ERβ ELISA Kit (Cloud-Clone, Houston, TX, USA).

[3] = system: 3D EngNT (RSC96/PC12 co-culture); test: ROS production (cytochrome C reduction) in 3D EngNT; format: cell-based, rat; conditions: GGF 200 ng/mL pretreatment, 24 h with intestinal metabolites
Protocol: In the EngNT in vitro model, superoxide anion release was assessed by measuring cytochrome C reduction. Superoxide dismutase and cytochrome C (from Merck Life Science, Rome, Italy) were incubated for 30 min with both treated and untreated cells. Absorbance at 550 nm was recorded using a spectrometer (Infinite 200 Pro MPlex, Tecan, Männedorf, Switzerland). The results, averaged over five tests performed in triplicate, are expressed as the mean ± standard deviation (%) of lower cytochrome C nanomoles per microgram of protein relative to the control (0 line).

TNFα = TNFα ELISA in 3D EngNT supernatants; format: cell-based, rat; conditions: GGF 200 ng/mL pretreatment, 24 h
Description: TNF-α levels in 3D EngNT supernatants were quantified using the TNF-α ELISA Kit (Merck Life Science, Rome, Italy). The results were obtained using a calibration curve (range: 24.58–6000 pg/mL).

p75, MPZ, NRG1, and Erβ = test: Neuroprotection biomarker panel by ELISA in 3D EngNT (all markers together); format: cell-based, rat; conditions: for all markers (p75, MPZ, NRG1, ERβ); GGF 200 ng/mL pretreatment
Protocol: as §1
3D EngNT cell lysates were subjected to the Rat NGFR ELISA kit (MyBiosource, San Diego, CA, USA) in accordance with the product specifications. Quantification was obtained through a standard curve ranging from 0.312 to 20 ng/mL.
ERβ concentrations in 3D EngNT lysates were measured using the Rat ERβ ELISA Kit (Cloud-Clone, Houston, TX, USA). The result was given as % ng/mL against a 0.312–20 ng/mL standard curve.

Compound | nociception-related markers NaV 1.7, NaV 1.8, GABA (result in words) [1] | NRG1 levels (result in words) (NRG1) | p75 signal (result in words) (p75) | MPZ levels (result in words) (MPZ) | cell viability (result in words) [2] | Erβ levels (result in words) (ERβ) | ROS production, antioxidant response (result in words) [3] | permeability compared to the control (Caco-2 cells; at 4 h, fluorescent tracer, normalised to control) [%] | permeability (result in words) (Caco-2 cells; individual agents, 1–6 h) | TNFα production (result in words) (TNFα) | reduction of marker levels compared to the control condition (p75, MPZ, NRG1, and Erβ)
N[C@@H](CCC(=O)N[C@@H](CS)C(=O)NCC(=O)O)C(=O)O [GSH, Glutathione] | neuroprotective and hypothetically anti-nociceptive effects | more biological effects than ALA and vitamin B6 alone | comparable to ALA | stronger, more noticeable impact than ALA and vitamin B6 | almost as strong as ALA and vitamin B6 | comparable to ALA and better than vitamin B6 | more pronounced reduction | – | – | – | –
CC(=O)N[C@@H](CS)C(=O)O [NAC, N-Acetylcysteine] | neuroprotective and hypothetically anti-nociceptive effects | – | – | stronger, more noticeable impact than ALA and vitamin B6 | – | comparable to ALA and better than vitamin B6 | greatest effect compared to ALA and vitamin B6 | 51 | highest permeability of all agents | effect slightly inferior to ALA | –
O=c1ccn([C@@H]2O[C@H](COP(=O)(O)O)[C@@H](O)[C@H]2O)c(=O)[nH]1 [UMP, Uridine monophosphate] | neuroprotective and hypothetically anti-nociceptive effects | – | comparable to ALA | – | effects even more similar | – | – | – | – | most pronounced reduction, superior to ALA | –
glial growth factor 2 [GGF] | – | – | – | – | – | – | – | – | – | – | about 10%
